# Laboratory results: ChEMBL document CHEMBL3885881, “DrugMatrix”
# Species: Rattus norvegicus
# Test: DrugMatrix - Regimen: Daily Repeat
# Assay type: toxicity, organism-based, Sprague-Dawley
# Design: regimen Daily Repeat, gender Male, age 6-8 weeks
# Conditions: in vivo, po, route oral GAVAGE, […]; for ABSOLUTE BASOPHIL / ABSOLUTE EOSINOPHIL / ABSOLUTE LYMPHOCYTE / ABSOLUTE MONOCYTE / ABSOLUTE SEGMENTED NEUTROPHIL / BASOPHIL / EOSINOPHIL / ERYTHROCYTE COUNT / HEMATOCRIT / HEMOGLOBIN / LEUKOCYTE COUNT / LYMPHOCYTE / MEAN CORPUSCULAR HEMOGLOBIN / MEAN CORPUSCULAR HEMOGLOBIN CONCENTRATION / MEAN CORPUSCULAR VOLUME / MONOCYTE / NEUTROPHIL / NUCLEATED RED BLOOD CELLS / PLATELET COUNT: tissue Blood; for ALANINE AMINOTRANSFERASE / ALBUMIN / ALKALINE PHOSPHATASE / ASPARTATE AMINOTRANSFERASE / BLOOD UREA NITROGEN / CARBON DIOXIDE / CHLORIDE / CHOLESTEROL / CREATINE PHOSPHOKINASE / CREATININE / GLUCOSE / LACTATE DEHYDROGENASE / LIPASE / PHOSPHORUS / POTASSIUM / SODIUM / TOTAL BILIRUBIN / TOTAL PROTEIN / URIC ACID: tissue Plasma
# [1] = 0 mg/kg, 72 h, dose level Control, time 3 day
# [2] = 0 mg/kg, 120 h, dose level Control, time 5 day
# [3] = 5 mg/kg, 72 h, dose level Low, time 3 day
smiles,measurement,setting,value
"O=C(Nc1ccc(Cl)c(Cl)c1)c1cc(Cl)cc(Cl)c1O [3,3',4',5-TETRACHLOROSALICYLANILIDE]",ABSOLUTE BASOPHIL,[1],0 CELLS/uL
same,ABSOLUTE EOSINOPHIL,[1],0 CELLS/uL
same,ABSOLUTE LYMPHOCYTE,[1],11091.17 CELLS/uL
same,ABSOLUTE MONOCYTE,[1],172.17 CELLS/uL
same,ABSOLUTE SEGMENTED NEUTROPHIL,[1],1186.67 CELLS/uL
same,BASOPHIL,[1],0%
same,EOSINOPHIL,[1],0%
same,ERYTHROCYTE COUNT,[1],5.87 x10E6/uL
same,HEMATOCRIT,[1],36.87%
same,HEMOGLOBIN,[1],14.03 G/DL
same,LEUKOCYTE COUNT,[1],12.45 x10E3/uL
same,LYMPHOCYTE,[1],88.67%
same,MEAN CORPUSCULAR HEMOGLOBIN,[1],23.93 pg
same,MEAN CORPUSCULAR HEMOGLOBIN CONCENTRATION,[1],38.1 G/DL
same,MEAN CORPUSCULAR VOLUME,[1],62.73 fL
same,MONOCYTE,[1],1.5%
same,NEUTROPHIL,[1],9.83%
same,NUCLEATED RED BLOOD CELLS,[1],0 /100WBC
same,PLATELET COUNT,[1],1150.33 x10E3/uL
same,ALANINE AMINOTRANSFERASE,[1],67.17 u/L
same,ALBUMIN,[1],4.03 G/DL
same,ALKALINE PHOSPHATASE,[1],462.5 u/L
same,ASPARTATE AMINOTRANSFERASE,[1],88 u/L
same,BLOOD UREA NITROGEN,[1],13.17 mg/dL
same,CARBON DIOXIDE,[1],29.33 mmol/L
same,CHLORIDE,[1],101 MEQ/L
same,CHOLESTEROL,[1],69.17 mg/dL
same,CREATINE PHOSPHOKINASE,[1],292.5 u/L
same,CREATININE,[1],0.17 mg/dL
same,GLUCOSE,[1],167.5 mg/dL
same,LACTATE DEHYDROGENASE,[1],198.5 u/L
same,LIPASE,[1],10.67 u/L
same,PHOSPHORUS,[1],11.73 mg/dL
same,POTASSIUM,[1],5.91 MEQ/L
same,SODIUM,[1],143.3 MEQ/L
same,TOTAL BILIRUBIN,[1],0.18 mg/dL
same,TOTAL PROTEIN,[1],5.7 G/DL
same,URIC ACID,[1],1.3 mg/dL
same,ABSOLUTE BASOPHIL,[2],0 CELLS/uL
same,ABSOLUTE EOSINOPHIL,[2],64.33 CELLS/uL
same,ABSOLUTE LYMPHOCYTE,[2],12494.67 CELLS/uL
same,ABSOLUTE MONOCYTE,[2],117 CELLS/uL
same,ABSOLUTE SEGMENTED NEUTROPHIL,[2],1340.67 CELLS/uL
same,BASOPHIL,[2],0%
same,EOSINOPHIL,[2],0.33%
same,ERYTHROCYTE COUNT,[2],5.82 x10E6/uL
same,HEMATOCRIT,[2],36.97%
same,HEMOGLOBIN,[2],14.18 G/DL
same,LEUKOCYTE COUNT,[2],14.02 x10E3/uL
same,LYMPHOCYTE,[2],89%
same,MEAN CORPUSCULAR HEMOGLOBIN,[2],24.42 pg
same,MEAN CORPUSCULAR HEMOGLOBIN CONCENTRATION,[2],38.4 G/DL
same,MEAN CORPUSCULAR VOLUME,[2],63.52 fL
same,MONOCYTE,[2],0.83%
same,NEUTROPHIL,[2],9.83%
same,NUCLEATED RED BLOOD CELLS,[2],0 /100WBC
same,PLATELET COUNT,[2],1097.83 x10E3/uL
same,ALANINE AMINOTRANSFERASE,[2],58.83 u/L
same,ALBUMIN,[2],3.92 G/DL
same,ALKALINE PHOSPHATASE,[2],414.17 u/L
same,ASPARTATE AMINOTRANSFERASE,[2],89.17 u/L
same,BLOOD UREA NITROGEN,[2],16.83 mg/dL
same,CARBON DIOXIDE,[2],29.17 mmol/L
same,CHLORIDE,[2],100.33 MEQ/L
same,CHOLESTEROL,[2],54.5 mg/dL
same,CREATINE PHOSPHOKINASE,[2],386.17 u/L
same,CREATININE,[2],0.23 mg/dL
same,GLUCOSE,[2],184.17 mg/dL
same,LACTATE DEHYDROGENASE,[2],229.17 u/L
same,LIPASE,[2],10.83 u/L
same,PHOSPHORUS,[2],10.88 mg/dL
same,POTASSIUM,[2],5.97 MEQ/L
same,SODIUM,[2],142.2 MEQ/L
same,TOTAL BILIRUBIN,[2],0.12 mg/dL
same,TOTAL PROTEIN,[2],5.63 G/DL
same,URIC ACID,[2],1.55 mg/dL
same,ABSOLUTE BASOPHIL,[3],0 CELLS/uL
same,ABSOLUTE EOSINOPHIL,[3],173.67 CELLS/uL
same,ABSOLUTE LYMPHOCYTE,[3],11546 CELLS/uL
same,ABSOLUTE MONOCYTE,[3],53.33 CELLS/uL
same,ABSOLUTE SEGMENTED NEUTROPHIL,[3],1927 CELLS/uL
same,BASOPHIL,[3],0%
same,EOSINOPHIL,[3],1.33%
same,ERYTHROCYTE COUNT,[3],5.84 x10E6/uL
same,HEMATOCRIT,[3],36.37%
same,HEMOGLOBIN,[3],14.03 G/DL
same,LEUKOCYTE COUNT,[3],13.7 x10E3/uL
same,LYMPHOCYTE,[3],84%
same,MEAN CORPUSCULAR HEMOGLOBIN,[3],24.03 pg
same,MEAN CORPUSCULAR HEMOGLOBIN CONCENTRATION,[3],38.6 G/DL
same,MEAN CORPUSCULAR VOLUME,[3],62.27 fL
same,MONOCYTE,[3],0.33%
same,NEUTROPHIL,[3],14.33%
same,NUCLEATED RED BLOOD CELLS,[3],0 /100WBC
same,PLATELET COUNT,[3],1088.67 x10E3/uL
same,ALANINE AMINOTRANSFERASE,[3],64 u/L
same,ALBUMIN,[3],3.97 G/DL
same,ALKALINE PHOSPHATASE,[3],434.67 u/L
same,ASPARTATE AMINOTRANSFERASE,[3],108.33 u/L
same,BLOOD UREA NITROGEN,[3],14 mg/dL
same,CARBON DIOXIDE,[3],23 mmol/L
same,CHLORIDE,[3],102.33 MEQ/L
same,CHOLESTEROL,[3],66.33 mg/dL
same,CREATINE PHOSPHOKINASE,[3],588 u/L
same,CREATININE,[3],0.19 mg/dL
same,GLUCOSE,[3],171.67 mg/dL
same,LACTATE DEHYDROGENASE,[3],260 u/L
same,LIPASE,[3],9.67 u/L
same,PHOSPHORUS,[3],12.87 mg/dL
same,POTASSIUM,[3],6.31 MEQ/L
same,SODIUM,[3],141.93 MEQ/L
same,TOTAL BILIRUBIN,[3],0.13 mg/dL
same,TOTAL PROTEIN,[3],5.57 G/DL
same,URIC ACID,[3],1.83 mg/dL
